Assay results published in patent publication US10759783B2, “Biaryl inhibitors of Bruton'S tyrosine kinase” (BIOGEN MA INC., priority 2013, dated 2020).
Like-named read-outs stand apart in the source and are kept apart here.

Key:
[1] = target: BTK (phospho-BTK) in human whole blood (Homo sapiens, UniProt Q06187); assay: In vitro PD assay in human whole blood (pBTK assay)
BTK enzyme = target: T1, BTK enzyme (Homo sapiens, UniProt Q06187); assay: In vitro BTK kinase assay: BTK-POLYGAT-LS assay; format: biochemical; conditions: ATP 10 μM, read-out: IC50 (10uMATP)
T1 construct: purchased Upstate 14-552
T1 sequence (Q06187 whole entry): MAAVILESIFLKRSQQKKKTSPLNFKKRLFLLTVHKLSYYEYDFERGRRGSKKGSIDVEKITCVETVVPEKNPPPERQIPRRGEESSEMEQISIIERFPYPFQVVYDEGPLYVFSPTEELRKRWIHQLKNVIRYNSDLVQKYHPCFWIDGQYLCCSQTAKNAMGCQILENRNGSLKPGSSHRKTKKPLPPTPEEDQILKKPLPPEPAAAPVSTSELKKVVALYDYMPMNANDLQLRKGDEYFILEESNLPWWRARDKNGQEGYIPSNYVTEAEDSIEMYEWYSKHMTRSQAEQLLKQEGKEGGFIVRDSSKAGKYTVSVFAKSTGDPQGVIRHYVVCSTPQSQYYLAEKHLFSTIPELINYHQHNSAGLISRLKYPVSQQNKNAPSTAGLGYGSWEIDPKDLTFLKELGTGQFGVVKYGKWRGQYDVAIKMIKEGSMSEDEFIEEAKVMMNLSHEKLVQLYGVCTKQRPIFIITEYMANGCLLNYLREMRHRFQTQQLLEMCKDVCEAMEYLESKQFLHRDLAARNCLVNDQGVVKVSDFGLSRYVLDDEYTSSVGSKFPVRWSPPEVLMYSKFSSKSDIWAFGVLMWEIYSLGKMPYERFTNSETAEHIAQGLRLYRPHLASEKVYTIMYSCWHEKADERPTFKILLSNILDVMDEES
Method in brief: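 Human BTK activity was measured with final 10 μM ATP and 100 nM polyGAT substrate in pH 7.5 Tris buffer with 10 mM MgCl2, DTT, Triton X-100 and casein.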

Sequence of BTK (phospho-BTK) in human whole blood (Q06187 whole entry): as above

Row | SMILES | IC50 [1] [nM] | IC50 (BTK enzyme) [nM] | IC50 ([1]; read-out: pBTK IC50, human whole blood, 37° C. for 30 min) [nM]
1 | Cc1cc(-c2ccnc(Nc3cnn(C4CCN(C)CC4)c3)n2)ccc1CNC(=O)N1CC(OC(C)(C)C)C1 [Example I-302, 3-tert-butoxy-N-[[2-methyl-4-[2-[[1-(1-methyl-4-piperidyl)pyrazol-4-yl]amino]pyrimidin-4-yl]phenyl]methyl]azetidine-1-carboxamide] | < 500 | < 10 | –
2 | COCCn1cc(Nc2nccc(-c3ccc(CNC(=O)N4CCC(C(C)(C)C)C4)c(C)c3)n2)cn1 (stereo not drawn) [Example I-303, 3-tert-butyl-N-[[4-[2-[[1-(2-methoxyethyl)pyrazol-4-yl]amino]pyrimidin-4-yl]-2-methyl-phenyl]methyl]pyrrolidine-1-carboxamide] | < 500 | < 10 | –
3 | COCCn1cc(Nc2nccc(-c3ccc(CNC(=O)N4CC(OC(C)(C)C)C4)c(C)c3)n2)cn1 [Example I-304, 3-tert-butoxy-N-[[4-[2-[[1-(2-methoxyethyl)pyrazol-4-yl)amino]pyrimidin-4-yl]-2-methyl-phenyl]methyl]azetidine-1-carboxamide] | < 500 | < 10 | –
4 | CCn1cc(Nc2nccc(-c3ccc(CNC(=O)N4CCC(C(C)(C)C)C4)c(C)c3)n2)cn1 (stereo not drawn) [Example I-305, 3-tert-butyl-N-[[4-[2-[(1-ethylpyrazol-4-yl)amino]pyrimidin-4-yl]-2-methyl-phenyl]methyl]pyrrolidine-1-carboxamide] | < 500 | < 10 | –
5 | Cc1cc(-c2ccnc(Nc3cnn(C(C)C)c3)n2)ccc1CNC(=O)N1CC(OC(C)(C)C)C1 [Example I-306, 3-tert-butoxy-N-[[4-[2-[(1-isopropylpyrazol-4-yl)amino]pyrimidin-4-yl]-2-methyl-phenyl]methyl]azetidine-1-carboxamide] | – | < 10 | < 500
6 | Cc1cc(-c2cc(Nc3cc4n(n3)CCN(C)C4)ncn2)ccc1CN1CCc2c(cnn2C(C)(C)C)C1=O [Example I-309, 1-tert-butyl-5-[[2-methyl-4-[6-[(5-methyl-6,7-dihydro-4H-pyrazolo[1,5-a]pyrazin-2-yl)amino]pyrimidin-4-yl]phenyl]methyl]-6,7-dihydropyrazolo[4,3-c]pyridin-4-one] | < 500 | < 10 | –
7 | CN1CC(n2cc(Nc3nccc(-c4ccc(CNC(=O)N5CCC(C(C)(C)C)C5)c(C(F)(F)F)c4)n3)cn2)C1 (stereo not drawn) [Example I-311, 3-tert-butyl-N-[[4-[2-[[1-(1-methylazetidin-3-yl)pyrazol-4-yl]amino]pyrimidin-4-yl]-2-(trifluoromethyl)phenyl]methyl]pyrrolidine-1-carboxamide] | < 500 | < 10 | –
8 | CC(C)OC1CN(C(=O)NCc2ccc(-c3ccnc(Nc4cnn([C@H]5CCOC5)c4)n3)cc2C(F)(F)F)C1 [Example I-313, 3-isopropoxy-N[[4-[2-[[1-[(3S)-tetrahydrofuran-3-yl]pyrazol-4-yl]amino]pyrimidin-4-yl]-2-(trifluoromethyl)phenyl]methyl]azetidine-1-carboxamide] | < 500 | < 10 | –
9 | Cc1cc(-c2ccnc(Nc3cnn4c3CCC4)n2)ccc1CNC(=O)c1cnc(C(C)(C)C)s1 [Example I-315, 2-tert-butyl-N-[[4-[2-(5,6-dihydro-4H-pyrrolo[1,2-b]pyrazol-3-ylamino)pyrimidin-4-yl]-2-methyl-phenyl]methyl]thiazole-5-carboxamide] | < 500 | < 10 | –
10 | COCCn1cc(Nc2nccc(-c3ccc(CNC(=O)N4CCC(C(C)C)C4)c(C(F)(F)F)c3)n2)cn1 (stereo not drawn) [Example I-317, 3-isopropyl-N-[[4-[2-[[1-(2-methoxyethyl)pyrazol-4-yl]amino]pyrimidin-4-yl]-2-(trifluoromethyl)phenyl]methyl]pyrrolidine-1-carboxamide] | < 500 | < 10 | –
11 | COCCc1cc(-c2ccnc(Nc3cnn(C)c3)n2)ccc1CNC(=O)N1CC(OC(C)(C)C)C1 [Example I-319, 3-tert-butoxy-N-[[2-(2-methoxyethyl)-4-[2-[(1-methylpyrazol-4-yl)amino]pyrimidin-4-yl]phenyl]methyl]azetidine-1-carboxamide] | < 500 | < 10 | –
12 | Cc1c(Nc2nccc(-c3ccc(CNC(=O)N4CCC(C(C)(C)C)C4)c(CCO)c3)n2)cnn1C (stereo not drawn) [Example I-321, 3-tert-butyl-N-[[4-[2-[(1,5-dimethylpyrazol-4-yl)amino]pyrimidin-4-yl]-2-(2-hydroxyethyl)phenyl]methyl]pyrrolidine-1-carboxamide] | < 500 | < 10 | –
13 | Cc1cc(-c2ccnc(Nc3cnn4c3CCC4)n2)ccc1CNC(=O)N1CC(OC(C)(C)C)C1 [Example I-322, 3-tert-butoxy-N-[[4-[2-(5,6-dihydro-4H-pyrrolo[1,2-b]pyrazol-3-ylamino)pyrimidin-4-yl]-2-methyl-phenyl]methyl]azetidine-1-carboxamide] | < 500 | < 10 | –
14 | COCCc1cc(-c2ccnc(Nc3cnn4c3CCC4)n2)ccc1CNC(=O)N1CC(OC(C)(C)C)C1 [Example I-323, 3-tert-butoxy-N-[[4-[2-(5,6-dihydro-4H-pyrrolo[1,2-b]pyrazol-3-ylamino)pyrimidin-4-yl]-2-(2-methoxyethyl)phenyl]methyl]azetidine-1-carboxamide] | < 500 | < 10 | –
15 | CC(C)(C)C1CCN(C(=O)NC2CCCc3cc(-c4ccnc(Nc5cnn(CCO)c5)n4)ccc32)C1 (stereo not drawn) [Example I-327] | < 500 | < 10 | –

Further lines, with some results ahead:

Row | IC50 [1] [nM] | IC50 (BTK enzyme) [nM] | SMILES | IC50 ([1]; read-out: pBTK IC50, human whole blood, 37° C. for 30 min) [nM]
16 | < 500 | < 10 | CC(C)OC1CN(C(=O)NCc2ccc(-c3ccnc(Nc4cnn(CCO)c4)n3)cc2C(F)(F)F)C1 [Example I-301, N-[[4-[2-[[1-(2-hydroxyethyl)pyrazol-4-yl]amino]pyrimidin-4-yl]-2-(trifluoromethyl)phenyl]methyl]-3-isopropoxy-azetidine-1-carboxamide] | –
17 | < 500 | < 10 | Cc1cc(-c2ccnc(Nc3cnn(C)c3)n2)ccc1CNC(=O)N1CC(OCCF)C1 [Example I-307, 3-(2-fluoroethoxy)-N-[[2-methyl-4-[2-[(1-methylpyrazol-4-yl)amino]pyrimidin-4-yl]phenyl]methyl]azetidine-1-carboxamide] | –
18 | < 500 | < 10 | Cc1cc(-c2ccnc(Nc3cnn(C4CC4)c3)n2)ccc1CNC(=O)N1CCC(C(C)(C)C)C1 (stereo not drawn) [Example I-308, 3-tert-butyl-N-[[4-[2-[(1-cyclopropylpyrazol-4-yl)amino]pyrimidin-4-yl]-2-methyl-phenyl]methyl]pyrrolidine-1-carboxamide] | –
19 | < 500 | < 10 | CC(C)CN1CCN(Cc2ccc(-c3ccnc(Nc4cnn(CCO)c4)n3)cc2C(F)(F)F)C(=O)C1 [Example I-310, 1-[[4-[2-[[1-(2-hydroxyethyl)pyrazol-4-yl]amino]pyrimidin-4-yl]-2-(trifluoromethyl)phenyl]methyl]-4-isobutyl-piperazin-2-one] | –
20 | < 500 | < 10 | Cc1cc(-c2ccnc(Nc3cnn(C(C)(C)C(=O)NCC(F)(F)F)c3)n2)ccc1CNC(=O)N1CC(OC(C)C)C1 [Example I-312, N-[[4-[2-[[1-[1,1-dimethyl-2-oxo-2-(2,2,2-trifluoroethylamino)ethyl]pyrazol-4-yl]amino]pyrimidin-4-yl]-2-methyl-phenyl]methyl]-3-isopropoxy-azetidine-1-carboxamide] | –
21 | < 500 | < 10 | CC(C)OC1CN(C(=O)NCc2ccc(-c3ccnc(Nc4cnn([C@@H]5CCOC5)c4)n3)cc2C(F)(F)F)C1 [Example I-314, 3-isopropoxy-N-[[4-[2-[[1-[(3R)-tetrahydrofuran-3-yl]pyrazol-4-yl]amino]pyrimidin-4-yl]-2-(trifluoromethyl)phenyl]methyl]azetidine-1-carboxamide] | –
22 | < 500 | < 10 | CC(C)(C)C1CCN(C(=O)NCc2ccc(-c3ccnc(Nc4cnn([C@H]5CCNC5)c4)n3)cc2C(F)(F)F)C1 (stereo partly drawn) [Example I-316, 3-tert-butyl-N-[[4-[2-[[1-[(3S)-pyrrolidin-3-yl]pyrazol-4-yl]amino]pyrimidin-4-yl]-2-(trifluoromethyl)phenyl]methyl]pyrrolidine-1-carboxamide] | –
23 | < 500 | < 10 | CC(C)(C)C1CCN(C(=O)NCc2ccc(-c3ccnc(Nc4cnn(C5CCNC5)c4)n3)cc2C(F)(F)F)C1 [Example I-318, 3-tert-butyl-N-[8 4-[2-[[1-[(3R)-pyrrolidin-3-yl]pyrazol-4-yl]amino]pyrimidin-4-yl]-2-(trifluoromethyl)phenyl]methyl]pyrrolidine-1-carboxamide] | –
24 | < 500 | < 10 | COCCc1cc(-c2ccnc(Nc3cnn(C)c3)n2)ccc1CNC(=O)N1CCC(C(C)(C)C)C1 (stereo not drawn) [Example I-320, 3-tert-butyl-N-[[2-(2-methoxyethyl)-4-[2-[(1-methylpyrazol-4-yl)amino]pyrimidin-4-yl]phenyl]methyl]pyrrolidine-1-carboxamide] | –
25 | < 500 | < 10 | CC(C)(C)C1CCN(C(=O)NCc2ccc(-c3ccnc(Nc4cnn5c4CCC5)n3)cc2CCO)C1 (stereo not drawn) [Example I-324, 3-tert-butyl-N-[[4-[2-(5,6-dihydro-4H-pyrrolo[1,2-b]pyrazol-3-ylamino)pyrimidin-4-yl]-2-(2-hydroxyethyl)phenyl]methyl]pyrrolidine-1-carboxamide] | –
26 | < 500 | < 10 | COCCc1cc(-c2ccnc(Nc3cnn4c3CCC4)n2)ccc1CNC(=O)N1CC[C@@H](C(C)(C)C)C1 [Example I-325, (3S)-3-tert-butyl-N-[[4-[2-(5,6-dihydro-4H-pyrrolo[1,2-b]pyrazol-3-ylamino)pyrimidin-4-yl]-2-(2-methoxyethyl)phenyl]methyl]pyrrolidine-1-carboxamide] | –
27 | < 500 | < 10 | CC(C)OC1CN(C(=O)NC2CCCc3cc(-c4ccnc(Nc5cnn(C6CCN(C)CC6)c5)n4)ccc32)C1 (stereo not drawn) [Example I-326, 3-isopropoxy-N-[6-[2-[[1-(1-methyl-4-piperidyl)pyrazol-4-yl]amino]pyrimidin-4-yl]tetralin-1-yl]azetidine-1-carboxamide] | –
